# Assay results: patent US20180099937A1, “NOVEL ARYL-CYANOGUANIDINE COMPOUNDS” (Bayer Pharma Aktiengesellschaft, priority 2015, published 2018)
# Molecular target: SMYD2 (Homo sapiens, UniProt Q9NRG4)
# Experiment: Scintillation Proximity Assay (SPA) for detection of SMYD2 enzymatic inhibition
# Format: biochemical
# Parameters: The SMYD2 full length enzyme was produced in-house by expression (with an N-terminal 6× His tag) in E. coli; 6xHis (N); made in house; host or cells: E. coli
# Conditions: SMYD2 full length enzyme, p53 Peptide substrate 1.0 μM, 3H-SAM 60 nM; read-out: IC50 [mol/l] (SPA Assay)
# From the text: 1.1 Scintillation Proximity Assay (SPA) for Detection of SMYD2 Enzymatic Inhibition
# SMYD2 inhibitory activities of the compounds described in the present invention were quantified using a scintillation proximity assay (SPA) which measures methylation by the enzyme of the synthetic, biotinylated peptide Btn-Ahx-[…]—Amid×TFA (Biosyntan) derived from p53 and referred to from here on as “p53 Peptide”. The SMYD2 full length enzyme was produced in-house by expression (with an N-terminal 6× His tag) in E. coli and purification by affinity chromatography on a Ni-NTA Sepharose column followed by a size exclusion chromatography step on a Superdex 200 16/60 column (GE Healthcare).
# In a typical assay 11 different concentrations of each compound (0.1 nM, 0.33 nM, 1.1 nM, 3.8 nM, 13 nM, 44 nM, 0.15 μM, 0.51 μM, 1.7 μM, 5.9 μM and 20 μM) were tested in duplicate within the same microtiter plate. To this end, 100-fold concentrated compound solutions (in DMSO) were previously prepared by serial dilution (1:3.4) of 2 mM stocks in a clear low volume 384-well source microliter plate (Greiner Bio-One), from which 50 nl of compound solutions were transferred into a white low volume test microtiter plate from the same supplier. Subsequently, 2.5 μl SMYD2 in aqueous assay buffer [50 mM Tris/HCl pH 9.0 (AppliChem), 1 mM dithiothreitol (DTT, Sigma), 0.01% (w/v) bovine serum albumine (BSA, Sigma), 0.0022% (v/v) Pluronic (Sigma)] were added to the compounds in the test plate to a final enzyme concentration of —typically—3 nM (this parameter was adjusted depending on the activity of the enzyme lot in order to be within the linear dynamic range of the assay). The samples were then incubated for 15 min at 22° C. to allow pre-equilibration of the putative enzyme-inhibitor complexes before the start of the methylation reaction, which was initiated by the addition of 2.5 μl 2-fold concentrated solution (in assay buffer) of titriated S-Adenosyl-L-Methionine (3H-SAM, Perkin Elmer, final concentration: 60 nM) and p53 Peptide substrate (final concentration: 1.0 μM). The resulting mixture (5 μl final volume) was shortly centrifuged (2 min., 1500 rpm) and incubated at 22° C. during 30 min. Thereupon the reaction was stopped by adding 3 μl of Streptavidin PS SPA imaging beads (Perkin Elmer, final concentration of 3.12 μg/μl) and “cold” SAM (AK Scientific, 25 μM final concentration) for non-specific binding reduction. Plates containing the stopped reaction were sealed with transparent adhesive foil (Perkin Elmer), centrifuged (2 min., 1500 rpm), and further incubated for —at least—1 h at RT (or overnight at 4° C.) in order to allow the SPA signals to develop. Subsequently, the amount of product was evaluated by measuring the energy transfer from the β-particles emitted by the 3H-labeled substrate to the Europium scintillator co-polymerized in the polystyrene matrix of the PS imaging beads, using the standard settings for this purpose of a Viewlux (Perkin-Elmer) CCD plate imaging device (emission filter 613/55 (IFP). The resulting scintillation counts were taken as indicator for the amount of methylated peptide per well. The data were normalised using two sets of control wells (typically 16 each) for high−(=enzyme reaction with DMSO instead of test compound=0% =Minimum inhibition) and low−(=all assay components without enzyme=100% =Maximum inhibition) SMYD2 activity. IC50 values were calculated by fitting the normalized inhibition data to a 4-parameter logistic equation using the “Screener” analysis software from Genedata.
# Chain of SMYD2 (Q9NRG4 whole entry): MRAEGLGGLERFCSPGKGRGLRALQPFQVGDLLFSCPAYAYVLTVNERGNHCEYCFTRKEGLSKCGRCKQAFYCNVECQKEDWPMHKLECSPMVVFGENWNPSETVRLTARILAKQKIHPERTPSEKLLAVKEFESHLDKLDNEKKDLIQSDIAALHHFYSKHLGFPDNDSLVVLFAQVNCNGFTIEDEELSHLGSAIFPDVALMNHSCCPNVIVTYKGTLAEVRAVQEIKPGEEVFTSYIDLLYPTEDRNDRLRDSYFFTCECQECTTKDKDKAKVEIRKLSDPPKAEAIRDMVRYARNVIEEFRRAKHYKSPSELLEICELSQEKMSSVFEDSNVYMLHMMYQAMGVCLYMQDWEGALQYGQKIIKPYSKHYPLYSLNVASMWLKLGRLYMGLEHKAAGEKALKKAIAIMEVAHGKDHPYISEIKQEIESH
row,Structure (SMILES),IC50 [nM]
1,"CCN(C(=O)[C@H]1CCCN1)C1CN(/C(=N\C#N)Nc2cccc(CC(F)(F)F)c2)N=C1c1ccc(Cl)c(Cl)c1 (single isomer, unassigned) [Example 31.2, N-[1-{N′-Cyano-N-[3-(2,2,2-trifluoroethyl)phenyl]carbamimidoyl}-3-(3,4-dichlorophenyl)-4,5-dihydro-1H-pyrazol-4-yl]-N-ethyl-D-prolinamide]",211
2,"CCN(C(=O)[C@H]1CCCN1)C1CN(/C(=N\C#N)Nc2cccc(OC(F)F)c2)N=C1c1ccc(Cl)c(C)c1 (single isomer, unassigned) [Example 37.2, N-[3-(4-Chloro-3-methylphenyl)-1-{N′-cyano-N-[3-(difluoromethoxy)phenyl]carbamimidoyl}-4,5-dihydro-1H-pyrazol-4-yl]-N-ethyl-D-prolinamide]",> 20000
3,"N#C/N=C(/Nc1cccc(OC(F)F)c1)N1CC(NC(=O)C(N)(C2CC2)C2CC2)C(c2ccc(Cl)c(Cl)c2)=N1 (racemic) [Example 8, rac-2-Amino-N-[1-{N′-cyano-N-[3-(difluoromethoxy)phenyl]carbamimidoyl}-3-(3,4-dichlorophenyl)-4,5-dihydro-1H-pyrazol-4-yl]-2,2-dicyclopropylacetamide]",513
4,"CCN(C(=O)[C@H]1CCCN1)C1CN(/C(=N\C#N)Nc2cc(C(F)(F)F)ccc2OC(F)(F)F)N=C1c1ccc(Cl)c(Cl)c1 (single isomer, unassigned) [Example 30.2, N-[1-{N′-Cyano-N-[2-(trifluoromethoxy)-5-(trifluoromethyl)phenyl]carbamimidoyl}-3-(3,4-dichlorophenyl)-4,5-dihydro-1H-pyrazol-4-yl]-N-ethyl-D-prolinamide]",1540
5,"CCN(C(=O)[C@H]1CCCN1)C1CN(/C(=N\C#N)Nc2cc(C(F)(F)F)ccc2OC)N=C1c1ccc(Cl)c(Cl)c1 (mixture of isomers) [Example 27, N-[1-{N′-Cyano-N-[2-methoxy-5-(trifluoromethyl)phenyl]carbamimidoyl}-3-(3,4-dichlorophenyl)-4,5-dihydro-1H-pyrazol-4-yl]-N-ethyl-D-prolinamide]",4.54
6,"CCN(C(=O)[C@H]1CCCN1)C1CN(/C(=N\C#N)Nc2cccc(OC(F)F)c2F)N=C1c1ccc(Cl)c(Cl)c1 (single isomer, unassigned) [Example 13.2, N-[1-{N′-Cyano-N-[3-(difluoromethoxy)-2-fluorophenyl]carbamimidoyl}-3-(3,4-dichlorophenyl)-4,5-dihydro-1H-pyrazol-4-yl]-N-ethyl-D-prolinamide]",268
7,"CCN(C(=O)[C@H]1CCCN1)C1CN(/C(=N\C#N)Nc2cc(C(F)(F)F)ccc2OC(F)(F)F)N=C1c1ccc(Cl)c(Cl)c1 (single isomer, unassigned) [Example 30.1, N-[1-{N′-Cyano-N-[2-(trifluoromethoxy)-5-(trifluoromethyl)phenyl]carbamimidoyl}-3-(3,4-dichlorophenyl)-4,5-dihydro-1H-pyrazol-4-yl]-N-ethyl-D-prolinamide]",54.5
8,"CCN(C(=O)[C@@H]1CCC[C@@H]1N)C1CN(/C(=N\C#N)Nc2cccc(OC(F)F)c2)N=C1c1ccc(Cl)c(Cl)c1 (relative stereo) [Example 42, Rel-(1R,2S)-2-amino-N-[1-{N′-cyano-N-[3-(difluoromethoxy)phenyl]carbamimidoyl}-3-(3,4-dichlorophenyl)-4,5-dihydro-1H-pyrazol-4-yl]-N-ethylcyclopentanecarboxamide]",194

# Other lines, results leading:
row,IC50 [nM],Structure (SMILES)
1,50.5,"CCN(C(=O)[C@H]1CCCN1)C1CN(/C(=N\C#N)Nc2cccc(OC(F)(F)F)c2F)N=C1c1ccc(Cl)c(Cl)c1 (mixture of isomers) [Example 21, N-[1-{N′-Cyano-N-[2-fluoro-3-(trifluoromethoxy)phenyl]carbamimidoyl}-3-(3,4-dichlorophenyl)-4,5-dihydro-1H-pyrazol-4-yl]-N-ethyl-D-prolinamide]"
2,50.6,"CCN(C(=O)[C@H]1CCCN1)C1CN(/C(=N\C#N)Nc2ccc(F)c(OC(F)(F)F)c2)N=C1c1ccc(Cl)c(Cl)c1 (mixture of isomers) [Example 22, N-[1-{N′-Cyano-N-[4-fluoro-3-(trifluoromethoxy)phenyl]carbamimidoyl}-3-(3,4-dichlorophenyl)-4,5-dihydro-1H-pyrazol-4-yl]-N-ethyl-D-prolinamide]"
3,43.2,"CCN(C(=O)[C@H]1CCN1)C1CN(/C(=N\C#N)Nc2cc(F)cc(OC(F)(F)F)c2)N=C1c1ccc(Cl)c(Cl)c1 (mixture of isomers) [Example 23, (2R)-N-[1-{N′-Cyano-N-[3-fluoro-5-(trifluoromethoxy)phenyl]carbamimidoyl}-3-(3,4-dichlorophenyl)-4,5-dihydro-1H-pyrazol-4-yl]-N-ethylazetidine-2-carboxamide]"
4,296,"CCN(C(=O)[C@H]1CCCN1)C1CN(/C(=N\C#N)Nc2ccc(F)c(OC(F)(F)F)c2)N=C1c1ccc(Cl)c(Cl)c1 (single isomer, unassigned) [Example 22.2, N-[1-{N′-Cyano-N-[4-fluoro-3-(trifluoromethoxy)phenyl]carbamimidoyl}-3-(3,4-dichlorophenyl)-4,5-dihydro-1H-pyrazol-4-yl]-N-ethyl-D-prolinamide]"
5,248,"CCN(C(=O)[C@H]1C[C@@H](F)CN1)C1CN(/C(=N\C#N)Nc2cc(F)cc(OC(F)(F)F)c2)N=C1c1ccc(Cl)c(Cl)c1 (single isomer, unassigned) [Example 25.1]"
6,1380,"CCN(C(=O)[C@H]1CCCN1)C1CN(/C(=N\C#N)Nc2cccc(OC(F)(F)F)c2)N=C1c1ccc(Cl)c(Cl)c1 (single isomer, unassigned) [Example 17.2, N-[1-{N′-Cyano-N-[3-(trifluoromethoxy)phenyl]carbamimidoyl}-3-(3,4-dichlorophenyl)-4,5-dihydro-1H-pyrazol-4-yl]-N-ethyl-D-prolinamide]"
